Laboratory results from ChEMBL document CHEMBL1157938, “Cytotoxicity and inhibition of DNA topoisomerase I of polyhydroxylated triterpenoids and triterpenoid glycosides” (Bioorg Med Chem Lett, 2010).
The source made the active and inactive calls. The rule behind the calls is not given here.

Legend:
A549 = test: Cytotoxicity against human A549 cells at 25 uM after 48 hrs by WST8 assay; format: functional, cell-based
HL-60 = test: Cytotoxicity against human HL60 cells at 25 uM after 48 hrs by WST8 assay; format: functional, cell-based
DNA topoisomerase 1 = target: T1, DNA topoisomerase 1 (Homo sapiens, UniProt P11387); test: Inhibition of human DNA topoisomerase 1-mediated relaxation of supercoiled DNA by gel electrophoresis
T1 sequence (P11387 whole entry): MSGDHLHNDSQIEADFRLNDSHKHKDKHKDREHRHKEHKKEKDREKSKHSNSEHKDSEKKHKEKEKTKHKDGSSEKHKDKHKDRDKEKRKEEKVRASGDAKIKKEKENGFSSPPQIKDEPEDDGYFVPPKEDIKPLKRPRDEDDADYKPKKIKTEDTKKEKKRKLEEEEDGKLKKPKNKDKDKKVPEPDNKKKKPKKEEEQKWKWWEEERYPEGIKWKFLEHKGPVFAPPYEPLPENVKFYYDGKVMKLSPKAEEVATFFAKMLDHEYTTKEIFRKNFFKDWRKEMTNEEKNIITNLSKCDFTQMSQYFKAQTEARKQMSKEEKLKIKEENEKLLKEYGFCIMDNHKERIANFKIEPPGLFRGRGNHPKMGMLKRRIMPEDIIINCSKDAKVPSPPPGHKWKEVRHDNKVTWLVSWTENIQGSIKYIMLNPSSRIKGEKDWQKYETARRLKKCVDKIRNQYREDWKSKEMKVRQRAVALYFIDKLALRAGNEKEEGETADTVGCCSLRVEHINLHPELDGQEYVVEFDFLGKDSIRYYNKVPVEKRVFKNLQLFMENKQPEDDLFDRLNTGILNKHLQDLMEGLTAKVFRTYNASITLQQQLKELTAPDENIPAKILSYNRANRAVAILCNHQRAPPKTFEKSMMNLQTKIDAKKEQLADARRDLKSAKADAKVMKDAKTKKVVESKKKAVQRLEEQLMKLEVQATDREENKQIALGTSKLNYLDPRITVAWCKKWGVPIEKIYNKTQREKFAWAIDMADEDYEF

PANC-1 = test: Cytotoxicity against human PANC1 cells at 25 uM after 48 hrs by WST8 assay; format: functional, cell-based
PC-3 = test: Cytotoxicity against human PC3 cells at 25 uM after 48 hrs by WST8 assay; format: functional, cell-based
[1] = target: DNA topoisomerase 2-alpha (Homo sapiens, UniProt P11388); test: Inhibition of human DNA topoisomerase 2-mediated relaxation of supercoiled DNA by gel electrophoresis
Sequence of DNA topoisomerase 2-alpha (P11388 whole entry): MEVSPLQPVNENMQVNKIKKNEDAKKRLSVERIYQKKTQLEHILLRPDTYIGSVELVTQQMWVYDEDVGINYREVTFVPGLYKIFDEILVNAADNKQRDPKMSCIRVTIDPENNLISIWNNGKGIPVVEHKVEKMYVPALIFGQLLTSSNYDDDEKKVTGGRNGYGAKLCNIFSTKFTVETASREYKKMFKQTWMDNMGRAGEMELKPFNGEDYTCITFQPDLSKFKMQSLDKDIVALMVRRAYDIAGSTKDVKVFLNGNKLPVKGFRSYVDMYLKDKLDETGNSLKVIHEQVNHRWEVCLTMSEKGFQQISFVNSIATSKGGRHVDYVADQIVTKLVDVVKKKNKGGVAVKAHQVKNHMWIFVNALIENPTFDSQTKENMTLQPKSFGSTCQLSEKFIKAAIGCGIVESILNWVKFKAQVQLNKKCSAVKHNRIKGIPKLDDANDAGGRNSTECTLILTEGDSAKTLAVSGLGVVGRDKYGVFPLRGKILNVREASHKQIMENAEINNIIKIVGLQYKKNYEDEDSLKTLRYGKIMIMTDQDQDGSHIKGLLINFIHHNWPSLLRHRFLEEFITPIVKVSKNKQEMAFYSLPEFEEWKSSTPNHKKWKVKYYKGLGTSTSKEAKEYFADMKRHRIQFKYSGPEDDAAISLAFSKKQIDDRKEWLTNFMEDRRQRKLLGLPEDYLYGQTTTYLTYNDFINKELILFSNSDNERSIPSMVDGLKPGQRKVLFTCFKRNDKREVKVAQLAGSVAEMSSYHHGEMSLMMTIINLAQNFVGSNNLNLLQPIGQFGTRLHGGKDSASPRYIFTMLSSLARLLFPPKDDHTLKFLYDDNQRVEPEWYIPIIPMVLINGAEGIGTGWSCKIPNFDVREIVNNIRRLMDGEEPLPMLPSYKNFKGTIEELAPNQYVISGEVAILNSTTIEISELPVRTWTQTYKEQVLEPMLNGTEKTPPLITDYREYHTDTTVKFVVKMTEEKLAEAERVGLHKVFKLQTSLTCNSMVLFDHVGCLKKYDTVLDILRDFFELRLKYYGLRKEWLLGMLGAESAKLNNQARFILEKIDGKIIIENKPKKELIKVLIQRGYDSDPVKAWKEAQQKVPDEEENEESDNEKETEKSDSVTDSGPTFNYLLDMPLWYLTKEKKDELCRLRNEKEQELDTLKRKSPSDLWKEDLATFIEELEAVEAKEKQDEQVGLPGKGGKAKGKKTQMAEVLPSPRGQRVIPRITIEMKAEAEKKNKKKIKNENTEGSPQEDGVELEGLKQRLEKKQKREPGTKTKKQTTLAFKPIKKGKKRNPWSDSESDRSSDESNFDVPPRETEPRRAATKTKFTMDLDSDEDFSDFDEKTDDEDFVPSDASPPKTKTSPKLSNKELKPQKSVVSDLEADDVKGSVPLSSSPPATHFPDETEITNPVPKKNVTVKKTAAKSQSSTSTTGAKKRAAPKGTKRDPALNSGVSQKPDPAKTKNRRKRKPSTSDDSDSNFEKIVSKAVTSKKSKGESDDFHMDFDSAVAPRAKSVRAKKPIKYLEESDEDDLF

| Compound | growth inhibition (GI) (A549) | growth inhibition (GI) (HL-60) | IC50 (DNA topoisomerase 1) [µM] | growth inhibition (GI) (PANC-1) | growth inhibition (GI) (PC-3) | IC50 [1] [µM] |
| --- | --- | --- | --- | --- | --- | --- |
| CC(C)=CCC[C@](C)(O)[C@H]1CC[C@]2(C)[C@@H]1[C@H](O)C[C@@H]1[C@@]3(C)CC[C@H](O)C(C)(C)[C@@H]3[C@@H](O[C@@H]3O[C@H](CO)[C@@H](O)[C@H](O)[C@H]3O[C@H]3O[C@@H](C)[C@H](O)[C@@H](O)[C@H]3O)C[C@]12C | inactive | inactive | > 250 | inactive | inactive | > 250 |
| CC(C)=CCC[C@@](C)(O)[C@H]1CC[C@]2(C)[C@@H]1[C@H](O)C[C@@H]1[C@@]3(C)CC[C@H](O)C(C)(C)[C@@H]3[C@@H](O[C@@H]3O[C@H](CO)[C@@H](O)[C@H](O)[C@H]3O[C@H]3O[C@@H](C)[C@H](O)[C@@H](O)[C@H]3O)C[C@]12C | inactive | inactive | > 250 | inactive | inactive | > 250 |
| CC(C)=CCC[C@@](C)(O)[C@H]1CC[C@]2(C)[C@@H]1[C@H](O)C[C@@H]1[C@@]3(C)CC[C@H](O[C@@H]4O[C@H](CO)[C@@H](O)[C@H](O)[C@H]4O[C@@H]4O[C@H](CO)[C@@H](O)[C@H](O)[C@H]4O)C(C)(C)[C@@H]3CC[C@]12C | inactive | inactive | > 250 | inactive | inactive | > 250 |
| C[C@H]1[C@H](C)CC[C@]2(C(=O)O[C@@H]3O[C@H](CO)[C@@H](O)[C@H](O)[C@H]3O)CC[C@]3(C(=O)O)C(=CC[C@@H]4[C@@]5(C)CC[C@H](O)C(C)(C)[C@@H]5CC[C@]43C)[C@H]12 | inactive | inactive | > 250 | inactive | inactive | > 250 |
| C[C@H]1[C@H](C)CC[C@]2(C(=O)O[C@@H]3O[C@H](CO)[C@@H](O)[C@H](O)[C@H]3O)CC[C@]3(C(=O)O)C(=CC[C@@H]4[C@@]5(C)CC[C@H](O[C@H]6O[C@@H](C)[C@H](O)[C@@H](O)[C@@H]6O)C(C)(C)[C@@H]5CC[C@]43C)[C@H]12 | inactive | inactive | > 250 | inactive | inactive | > 250 |
| C[C@H]1[C@H](C)CC[C@]2(C(=O)O)CC[C@]3(C(=O)O)C(=CC[C@@H]4[C@@]5(C)CC[C@H](O[C@H]6O[C@@H](C)[C@H](O)[C@@H](O)[C@H]6O)C(C)(C)[C@@H]5CC[C@]43C)[C@H]12 | inactive | inactive | > 250 | inactive | inactive | > 250 |
| C[C@H]1[C@H](C)CC[C@]2(C(=O)O[C@@H]3O[C@H](CO)[C@@H](O)[C@H](O)[C@H]3O)CC[C@]3(C(=O)O)C(=CC[C@@H]4[C@@]5(C)CC[C@H](O[C@@H]6O[C@H](CO)[C@@H](O[C@H]7O[C@@H](C)[C@H](O)[C@@H](O)[C@H]7O)[C@H](O)[C@H]6O)C(C)(C)[C@@H]5CC[C@]43C)[C@H]12 | inactive | inactive | > 250 | inactive | inactive | > 250 |
| C[C@H]1[C@H](C)CC[C@]2(C(=O)O[C@@H]3O[C@H](CO)[C@@H](O)[C@H](O)[C@H]3O[C@@H]3OC[C@H](O)[C@H](O)[C@H]3O)CC[C@]3(C(=O)O)C(=CC[C@@H]4[C@@]5(C)CC[C@H](O[C@@H]6O[C@H](CO)[C@@H](O)[C@H](O)[C@H]6O)C(C)(C)[C@@H]5CC[C@]43C)[C@H]12 | inactive | inactive | > 250 | inactive | inactive | > 250 |
| CC(C)=CC/C=C(/C)[C@H]1CC[C@]2(C)[C@@H]1[C@H](O)C[C@@H]1[C@@]3(C)CC[C@H](O)C(C)(C)[C@@H]3[C@@H](O)C[C@]12C | inactive | inactive | > 250 | inactive | inactive | > 250 |
| C[C@H]1[C@H](C)CC[C@]2(C(=O)O)CC[C@]3(C(=O)O)C(=CC[C@@H]4[C@@]5(C)C[C@@H](O)[C@H](O)C(C)(C)[C@@H]5CC[C@]43C)[C@H]12 | inactive | inactive | > 250 | inactive | inactive | > 250 |
| C=C(C)[C@@H]1CC[C@]2(C)CC[C@]3(C)[C@@H](CC[C@@H]4[C@@]5(C)CC[C@H](OC(C)=O)C(C)(C)[C@@H]5CC[C@]43C)[C@H]12 | inactive | inactive |  | inactive | inactive | > 250 |
| CC(C)=CCC[C@](C)(O)[C@H]1CC[C@]2(C)[C@@H]1[C@H](O)C[C@@H]1[C@@]3(C)CC[C@H](O[C@@H]4O[C@H](CO)[C@@H](O)[C@H](O)[C@H]4O[C@@H]4O[C@H](CO)[C@@H](O)[C@H](O)[C@H]4O)C(C)(C)[C@@H]3CC[C@]12C | inactive | inactive | > 250 | inactive | inactive | > 250 |
| C[C@H]1[C@H](C)CC[C@]2(C(=O)O[C@@H]3O[C@H](CO)[C@@H](O)[C@H](O)[C@H]3O)CC[C@]3(C(=O)O)C(=CC[C@@H]4[C@@]5(C)CC[C@H](O[C@@H]6O[C@H](CO)[C@@H](O)[C@H](O)[C@H]6O)C(C)(C)[C@@H]5CC[C@]43C)[C@H]12 | inactive | inactive | > 250 | inactive | inactive | > 250 |
| C[C@H]1[C@H](C)CC[C@]2(C(=O)O)CC[C@]3(C(=O)O)C(=CC[C@@H]4[C@@]5(C)CC[C@H](O[C@@H]6O[C@H](CO)[C@@H](O)[C@H](O)[C@H]6O)C(C)(C)[C@@H]5CC[C@]43C)[C@H]12 | inactive | inactive | > 250 | inactive | inactive | > 250 |
| CC(C)=CCC[C@](C)(O[C@@H]1O[C@H](CO)[C@@H](O)[C@H](O)[C@H]1O)[C@H]1CC[C@]2(C)[C@@H]1[C@H](O)C[C@@H]1[C@@]3(C)CC[C@H](O[C@@H]4O[C@H](CO)[C@@H](O)[C@H](O)[C@H]4O)C(C)(C)[C@@H]3CC[C@]12C [GINSENOSIDE F2] | inactive | inactive | > 250 | inactive | inactive | > 250 |
| CC(C)=CCC[C@](C)(O[C@@H]1O[C@H](CO[C@@H]2OC[C@H](O)[C@H](O)[C@H]2O)[C@@H](O)[C@H](O)[C@H]1O)[C@H]1CC[C@]2(C)[C@@H]1[C@H](O)C[C@@H]1[C@@]3(C)CC[C@H](O)C(C)(C)[C@@H]3[C@@H](O)C[C@]12C [GINSENOSIDE F3] | inactive | inactive | > 250 | inactive | inactive | > 250 |
| CC(C)=CCC[C@](C)(O[C@@H]1O[C@H](CO[C@H]2O[C@H](CO)[C@@H](O)[C@@H]2O)[C@@H](O)[C@H](O)[C@H]1O)[C@H]1CC[C@]2(C)[C@@H]1[C@H](O)C[C@@H]1[C@@]3(C)CC[C@H](O)C(C)(C)[C@@H]3[C@@H](O)C[C@]12C [GINSENOSIDE F5] | inactive | inactive | > 250 | inactive | inactive | > 250 |
| C=C(C)[C@@H]1CC[C@]2(C)CC[C@]3(C)[C@H](CC[C@@H]4[C@@]5(C)CC[C@H](O)C(C)(C)[C@@H]5CC[C@]43C)[C@@H]12 [LUPEOL] | inactive | inactive |  | inactive | inactive | > 250 |
